Data reported in patent US10640524B2, “Prototype systems of theranostic biomarkers for in vivo molecular management of cancer” (EPOS-IASIS RESEARCH AND DEVELOPMENT, LTD, priority 2015, dated 2020).

Key:
[1] = system: colon cancer cells (SW480); assay: Antiproliferative effect of A1F-D1F on colon cancer cells; assay type: cell-based; conditions: for effect on cell viability with respect to the control (no drug): SW480, FIG. 3; for cell viability with respect to the control: human, 24 h
Protocol: The antiproliferative effect of the following compounds A1F, B1F, C1F and D1F were tested on colon cancer cells (SW480).

LoVo cells = assay: MTT colorimetric assay of antiproliferative efficacy; assay type: cell-based; conditions: FIG. 4
SW620 cells = assay: Label-free temporal quantitative pharmacoproteomics; assay type: cell-based; conditions: 0.04 mM
Protocol: The following experiment was performed to uncover new biomarkers of therapeutic response to the anticancer efficacy of the natural product based theranostic systems of the present invention.
In this experiment, SW620 cells were seeded in T75 flasks in DMEM, 10% FBS and 1% Penicillin/Streptomycin (all from Gibco). The cells were allowed to attach overnight. The following day the medium was removed and fresh medium containing 0.04 mM of either γT (γ-tocotrienol) or DCE-γT (diluted in absolute ethanol; final concentration of ethanol in the medium was 0.1% v/v). For control untreated cells, equal amount of fresh medium (containing ethanol at 0.1% v/v final concentration) was added.
SW620 cells were harvested after 24, 36 and 48 hrs of incubation with γT or DCE-γT. Briefly, the medium was removed and the cells were rinsed three times with PBS (without Ca, Mg) (Gibco). Fresh PBS was added and the cells were scraped off the flasks and collected in tubes. Collected cells were centrifuged at 1000 rpm (165 g) for 3 min and the supernatant was removed. The cell pellet was re-suspended in PBS and the centrifugation step was repeated. The supernatant was removed and the cells in minimal residual PBS were snap-freezed in liquid nitrogen. Once frozen the cells were stored in −80° C. until the proteomics analysis.
In terms of data analysis, a threshold of relative protein abundance equal or greater than 1.5-fold increase or decrease was set.

[2] = In vivo biodistribution by quantitative fluorescence imaging; parameters: species or system mouse
Protocol: A study of the in vivo biodistribution of a dicarboxylic ester of γ-Tocotrienol (DCE-γT) (enabled by customized histopathologic processing and quantitative fluorescence imaging) was performed. The study disclosed liver uptake as a function of time defining fluorescent chromanol esters as valued molecular probes. The structure of the dicarboxylic ester of γ-Tocotrienol (DCE-γT) is as follows:
Fluorescent signals of the DCE-γT and its free fluorescent metabolite, corresponding to the fluorescent ligand, peaked at 30 min and 3 hrs respectively, which was in agreement with in vitro findings. Colon uptake as a function of time confirms the mitochondrial predilection of the esterified chromanols and claims a new generation of optically active mitocans.

[3] = target: T1, EGFR membrane tyrosine kinase receptor (Homo sapiens, UniProt P00533); assay: FRET between EGFR-Luc and fluorescent ester in transfected cells; assay type: cell-based; conditions: EGFR negative colon cancer cells transfected with EGFR-Luc plasmid; FIG. 5
T1 construct: expressed in transfected cells
Protocol: The fluorescent esters of the natural products disclosed herein can also be used as molecular probes for deciphering the interaction between the natural product and potential biomarkers in cancer cells. EGFR negative colon cancer cells were transiently transfected with a rationally designed EGFR-Luc plasmid and incubated with the DCE-γ-Tocotrienol ester. Bioluminescence of the Luciferase (donor) was assessed against the fluorescence signal of either the DCE-γ-Tocotrienol ester or the hydrolysis product (acceptor).

[4] = system: EGFR-Luc and Grb2-GFP interaction; assay: BRET of the interaction between EGFR-Luc and Grb2-GFP; assay type: cell-based

With `C=CC(=O)Nc1cc2c(Nc3ccc(Br)cc3)ncnc2cc1NC(=O)CCl` [A1F] the “effect on cell viability with respect to the control (no drug)” value (shortened to “effect on cell viability … (no drug)”) [1] was “reduce the viability of the cells” and the “cell viability with respect to the control” value [1] was 20%.

For `C=CC(=O)Nc1cc2c(Nc3ccc(C(C)C)cc3)ncnc2cc1NC(=O)CCl` [B1F], the “effect on cell viability … (no drug)” value [1] was “reduce the viability of the cells”.

With `C=CC(=O)Nc1cc2c(NCc3cccc4ccccc34)ncnc2cc1NC(=O)CCl` [C1F] the “effect on cell viability … (no drug)” value [1] was “reduce the viability of the cells” and the “cell viability with respect to the control” value [1] was 20%.

In the case of `C=CC(=O)Nc1cc2c(Nc3ccc(C(C)(C)C)cc3)ncnc2cc1NC(=O)CCl` [D1F], the “effect on cell viability … (no drug)” value [1] is reported as “reduce the viability of the cells” and the “cell viability with respect to the control” value [1] is reported as 20%.

For `CC1(C)C(/C=C/C=C/C=C/C=C2\N(CCCCS(=O)(=O)[O-])c3ccc4ccccc4c3C2(C)C)=[N+](CCCCS(=O)(=O)[O-])c2ccc3ccccc3c21.[Na+]` [free cyanine dye, indocyanine green, reference compound], the antiproliferative efficacy (LoVo cells) was “did not exhibit any antiproliferative effects”.

For `CCN1\C(=C/C=C/C=C/C=C/C2=[N+](CCCCCC(=O)NCC(=O)Nc3cccc(Nc4ncnc5ccc(NC(=O)COC)cc45)c3)c3ccc4ccccc4c3C2(C)C)C(C)(C)c2c1ccc1ccccc21.[Br-]` [theranostic system], the antiproliferative efficacy (LoVo cells) was “significantly higher antiproliferative efficacy than free anilinoquinazoline”.

For `CC(C)=CCC/C(C)=C/CC/C(C)=C/CC[C@]1(C)CCc2cc(O)c(C)c(C)c2O1` [γT, γ-tocotrienol, reference compound], the “decrease in protein level of histone H2B types” value (SW620 cells; versus untreated control) was 1.8 fold, the “decrease in protein level of histone H3 types” value (SW620 cells; versus untreated control) was “at least 3.7 fold” and the “decrease in protein level of hnRNPs” value (SW620 cells; versus untreated control) was “at least 2 fold”. For the same compound, the “decrease in protein level of snRNPs” value (SW620 cells; versus untreated control) was 1.8 fold, the “increase in histone H2A.Z” value (SW620 cells; versus untreated control) was 24 fold and the “increase in level of RNA helicases” value (SW620 cells; versus untreated control) was at least 1.9 fold. For the same compound, the “increase in level of certain snRNP components” value (SW620 cells; versus untreated control) was at least 3 fold and the “increase in level of transcription regulators/co-factors” value (SW620 cells; versus untreated control) was at least 2 fold.

In the case of “dicarboxylic ester of γ-Tocotrienol [DCE-γT]”, the “time of peak fluorescent signal” value ([2]; in vivo biodistribution, liver uptake as a function of time) is reported as 30 min, the “blood brain barrier passage” value ([2]; uptake by mouse brain parenchyma cells) is reported as “able to pass the blood brain barrier” and the FRET signal [3] is reported as “amplified FRET signal”. The “activation within the EGFR axis” value [4] was “neither the ester nor the hydrolysis products elicit any unwanted activation”, the “number of proteins whose expression was elicited” value (shortened to “number”) (SW620 cells; 24 hrs) was 37 and the “number” value (SW620 cells; 36 hrs) was 30. For the same compound, the “number” value (SW620 cells; 48 hrs) was 29, the “decrease in DNA repair factors” value (SW620 cells; versus untreated control) was 2 fold and the “decrease in protein level of histone H3 types” value (SW620 cells; versus untreated control) was “at least 6 fold”. For the same compound, the “decrease in protein level of snRNPs” value (SW620 cells; versus untreated control) was 2 fold, the “increase in histone H2A.Z” value (SW620 cells; versus untreated control) was 23 fold and the “increase in histone H3 forms” value (SW620 cells; versus untreated control) was at least 1.8 fold.
